{
  "source": "patent US20050096311A1",
  "about": "“Compositions and methods for treatment of nervous system disorders” (CNS Response, priority 2003, published 2005)",
  "key": {"[1]": {"tested_on": "Parkinson's disease symptoms", "details": "cited from earlier work"}, "[2]": {"details": "cited from earlier work"}, "[3]": {"details": "cited from earlier work", "remark": "listed apart in the source"}, "[4]": {"tested_on": "pain of migraine", "details": "oral or intrapulmonary administration; cited from earlier work"}, "[5]": {"target": "norepinephrine uptake (Homo sapiens, UniProt P23975)", "sequence (P23975 whole entry)": "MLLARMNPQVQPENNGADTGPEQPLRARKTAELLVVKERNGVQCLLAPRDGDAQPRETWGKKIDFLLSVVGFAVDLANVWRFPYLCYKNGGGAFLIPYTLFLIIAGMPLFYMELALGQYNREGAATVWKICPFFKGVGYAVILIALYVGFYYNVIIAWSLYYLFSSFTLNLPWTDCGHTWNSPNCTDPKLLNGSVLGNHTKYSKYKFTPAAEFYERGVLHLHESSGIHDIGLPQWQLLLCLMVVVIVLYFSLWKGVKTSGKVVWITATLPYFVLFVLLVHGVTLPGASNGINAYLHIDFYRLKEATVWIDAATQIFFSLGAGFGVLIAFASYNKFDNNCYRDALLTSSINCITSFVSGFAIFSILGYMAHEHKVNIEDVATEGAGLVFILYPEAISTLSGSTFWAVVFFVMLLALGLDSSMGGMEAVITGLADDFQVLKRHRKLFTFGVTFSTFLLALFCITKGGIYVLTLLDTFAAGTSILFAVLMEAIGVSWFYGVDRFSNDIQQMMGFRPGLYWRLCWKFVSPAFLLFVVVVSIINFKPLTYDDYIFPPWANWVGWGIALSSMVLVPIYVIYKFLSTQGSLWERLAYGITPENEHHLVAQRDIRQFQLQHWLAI", "details": "cited from earlier work"}, "[6]": {"tested_on": "migraine attacks", "details": "given prophylactically; cited from earlier work"}, "[7]": {"tested_on": "nervous system disorder symptoms in affected patients", "assay": "Randomized double-blind study in naive patients presenting at least one symptom of a nervous system disorder (Example 1)", "format": "in vivo", "text": "The design of this study is a randomized double-blind protocol in which a first set of clinicians diagnosed a group of naive (i.e., previously untreated) patients presenting at least one symptom of a nervous system disorder.\nA second set of clinicians will monitor the compliance of each patient and assess the presence or absence of at least one symptom of a nervous system disorder on a weekly basis throughout the treatment period. At the termination of the study a third set of clinicians will evaluate the data and document the results.\nRelative to Group I, all treatment groups are expected to reduce at least one symptom of a nervous system disorder except Group IV."}, "[8]": {"details": "formulated as a hydrochloride salt; cited from earlier work"}, "[9]": {"details": "biphasic elimination; cited from earlier work"}, "[10]": {"target": "dopamine uptake (Homo sapiens, UniProt Q01959)", "sequence (Q01959 whole entry)": "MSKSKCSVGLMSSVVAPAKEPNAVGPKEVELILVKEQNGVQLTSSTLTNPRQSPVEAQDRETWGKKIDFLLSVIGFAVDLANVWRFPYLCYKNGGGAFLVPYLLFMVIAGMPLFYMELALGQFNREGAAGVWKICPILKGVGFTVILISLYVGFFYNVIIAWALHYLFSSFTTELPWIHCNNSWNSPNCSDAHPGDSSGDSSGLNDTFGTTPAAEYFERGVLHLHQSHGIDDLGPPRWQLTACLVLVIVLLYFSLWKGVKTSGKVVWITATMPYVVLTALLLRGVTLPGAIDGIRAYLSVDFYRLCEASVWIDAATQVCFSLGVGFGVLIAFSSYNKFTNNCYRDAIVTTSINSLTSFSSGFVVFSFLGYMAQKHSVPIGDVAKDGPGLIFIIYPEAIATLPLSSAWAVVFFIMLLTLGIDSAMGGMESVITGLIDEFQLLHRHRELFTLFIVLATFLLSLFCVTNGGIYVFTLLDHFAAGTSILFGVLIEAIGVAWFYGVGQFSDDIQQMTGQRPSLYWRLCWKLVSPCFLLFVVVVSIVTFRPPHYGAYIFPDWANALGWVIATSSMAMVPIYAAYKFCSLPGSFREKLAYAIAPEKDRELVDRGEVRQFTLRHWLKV", "details": "cited from earlier work"}},
  "data": [
    {"smiles": "N[C@@H](Cc1ccc(O)c(O)c1)C(=O)O", "note": "[Levodopa, L-3,4-dihydroxyphenylalanine]", "values": [
      {"measurement": "reduction in symptomology", "setting": "[1]; Parkinson's disease patients", "result": 50, "unit": "%"},
      {"measurement": "treated patients showing the reduction in symptomology", "setting": "[1]; Parkinson's disease patients", "result": 75, "unit": "%"}
    ]},
    {"smiles": "NC(=O)N1c2ccccc2CC(O)c2ccccc21", "note": "(stereo not shown) [MHD, 10, 11-dihydro-10-OH-carbazepine]", "values": [
      {"measurement": "increase in the non-protein bound plasma MHD concentration", "setting": "[2]; co-administration of oxcarbazepine and vilooxazoine", "result": 11, "unit": "%"},
      {"measurement": "plasma protein binding", "setting": "[3]; distribution between blood cell compartments", "result": "low level of plasma protein binding"},
      {"measurement": "mean non-protein bound MHD fraction", "setting": "[3]; epileptic patients", "result": "approximately 56.7 +/−5.5%"}
    ]},
    {"smiles": "CN1C[C@H](C(=O)N[C@]2(C)O[C@@]3(O)[C@@H]4CCCN4C(=O)[C@H](Cc4ccccc4)N3C2=O)C=C2c3cccc4[nH]cc(c34)C[C@H]21", "note": "[Ergotamine]", "values": [
      {"measurement": "time to pain relief", "setting": "[4]", "result": 5, "unit": "h"}
    ]},
    {"smiles": "C[C@@H]1NC(C)(C)CO[C@@]1(O)c1cccc(Cl)c1", "note": "[(S,S)-hydroxybupropion]", "values": [
      {"measurement": "inhibition of norepinephrine uptake", "setting": "[5]", "result": "effective inhibitor of only norepinephrine uptake"}
    ]},
    {"smiles": "C[C@@](Cc1ccc(O)c(O)c1)(NN)C(=O)O", "note": "[carbidopa]", "values": [
      {"measurement": "reduction of the dose of levodopa", "setting": "[1]; concurrent administration of carbidopa", "result": "≤ 75", "unit": "%"}
    ]},
    {"smiles": "CC(C)NCC(O)COc1cccc2ccccc12", "note": "(stereo not shown) [propranolol]", "values": [
      {"measurement": "patients with reduced frequency and intensity of migraine attacks", "setting": "[6]", "result": 70, "unit": "%"}
    ]},
    {"smiles": "CC(NC(C)(C)C)C(=O)c1cccc(Cl)c1", "note": "(stereo not drawn) [bupropion, m-chloro-α-(t-butylamino)propiophenone]", "values": [
      {"measurement": "Percent Reduction In Nervous System Disorder Symptoms In Affected Patients", "setting": "[7]; Symptom EIGHT", "result": "25 ± 2.5", "unit": "%"},
      {"measurement": "Percent Reduction In Nervous System Disorder Symptoms In Affected Patients", "setting": "[7]; Symptom FIVE", "result": "25 ± 2.5", "unit": "%"},
      {"measurement": "Percent Reduction In Nervous System Disorder Symptoms In Affected Patients", "setting": "[7]; Symptom FOUR", "result": "25 ± 2.5", "unit": "%"},
      {"measurement": "Percent Reduction In Nervous System Disorder Symptoms In Affected Patients", "setting": "[7]; Symptom ONE", "result": "25 ± 2.5", "unit": "%"},
      {"measurement": "Percent Reduction In Nervous System Disorder Symptoms In Affected Patients", "setting": "[7]; Symptom SEVEN", "result": "25 ± 2.5", "unit": "%"},
      {"measurement": "Percent Reduction In Nervous System Disorder Symptoms In Affected Patients", "setting": "[7]; Symptom SIX", "result": "25 ± 2.5", "unit": "%"},
      {"measurement": "Percent Reduction In Nervous System Disorder Symptoms In Affected Patients", "setting": "[7]; Symptom THREE", "result": "25 ± 2.5", "unit": "%"},
      {"measurement": "Percent Reduction In Nervous System Disorder Symptoms In Affected Patients", "setting": "[7]; Symptom TWO", "result": "25 ± 2.5", "unit": "%"},
      {"measurement": "solubility", "setting": "[8]", "result": "water-soluble"},
      {"measurement": "elimination half-life", "setting": "[9]", "result": "11 to 14", "unit": "h"},
      {"measurement": "redistribution half-life", "setting": "[9]", "result": "about one"}
    ]},
    {"smiles": "C[C@H]1NC(C)(C)CO[C@]1(O)c1cccc(Cl)c1", "note": "[hydroxybupropion]", "values": [
      {"measurement": "inhibition of norepinephrine uptake", "setting": "[5]", "result": "effective inhibitor"},
      {"measurement": "inhibition of dopamine uptake", "setting": "[10]", "result": "effective inhibitor"}
    ]},
    {"smiles": "NC(=O)N1c2ccccc2CC(=O)c2ccccc21", "note": "[oxcarbazepine]", "values": [
      {"measurement": "plasma half-life", "setting": "[2]; 600 mg oxcarbazepine dose", "result": "approximately 19.3±6.2 hours"},
      {"measurement": "Percent Reduction In Nervous System Disorder Symptoms In Affected Patients", "setting": "[7]; Symptom EIGHT", "result": "10 ± 1", "unit": "%"},
      {"measurement": "Percent Reduction In Nervous System Disorder Symptoms In Affected Patients", "setting": "[7]; Symptom FIVE", "result": "10 ± 1", "unit": "%"},
      {"measurement": "Percent Reduction In Nervous System Disorder Symptoms In Affected Patients", "setting": "[7]; Symptom FOUR", "result": "10 ± 1", "unit": "%"},
      {"measurement": "Percent Reduction In Nervous System Disorder Symptoms In Affected Patients", "setting": "[7]; Symptom ONE", "result": "10 ± 1", "unit": "%"},
      {"measurement": "Percent Reduction In Nervous System Disorder Symptoms In Affected Patients", "setting": "[7]; Symptom SEVEN", "result": "10 ± 1", "unit": "%"},
      {"measurement": "Percent Reduction In Nervous System Disorder Symptoms In Affected Patients", "setting": "[7]; Symptom SIX", "result": "10 ± 1", "unit": "%"},
      {"measurement": "Percent Reduction In Nervous System Disorder Symptoms In Affected Patients", "setting": "[7]; Symptom THREE", "result": "10 ± 1", "unit": "%"},
      {"measurement": "Percent Reduction In Nervous System Disorder Symptoms In Affected Patients", "setting": "[7]; Symptom TWO", "result": "10 ± 1", "unit": "%"}
    ]}
  ]
}
